# Assay results: PMC8880313, “Discovery of Novel Andrographolide Derivatives as Antiviral Inhibitors against Human Enterovirus A71” (Pharmaceuticals, 2022)
# What was measured:
# Assay type in all cases: cell-based, human enterovirus A71 (EV-A71) strain 41
# EV-A71 virions = test: Co-treatment assay; conditions: 20 µM with virions for 30 min, 12 hpi
# Experimental: (§1) To confirm this finding, assays to investigate the effect of ZAF-47 on EV-A71 entry into cells were performed. With pre-treatment assay, we first treated the cells with different concentrations of ZAF-47 before subjecting them to EV-A71 infection. The aim was to investigate if ZAF-47 was able to bind to host surface receptors which would prevent the virions from binding and thus blocking viral entry. […] Even at the highest concentration, the reduction in viral titre (0.8 log10 PFU/mL decrease) was not as pronounced as post-treatment and could likely be due to drug toxicity. Thus, it is unlikely that ZAF-47 inhibits EV-A71 infection by binding with host receptors to block viral entry. With co-treatment assay, we first treated EV-A71 virions with ZAF-47 for 30 min before infecting the cells. The aim was to investigate if ZAF-47 was able to bind to viral surface proteins which would prevent the virions from binding to the host receptors and thus blocking viral entry. […] Thus, it is unlikely that ZAF-47 blocks EV-A71 entry into host cells by binding to viral surface proteins. Instead, using entry bypass assay, we were able to deduce that ZAF-47 most likely targets EV-A71 post-entry stages. […]
# (§2) Seeded 24-well plates, with 1.5 × 10^5 RD cells per well, were incubated overnight at 37 °C with 5% CO2. […] The plates were frozen down at 12 hpi for viral titre quantification using viral plaque assay.
# EV-A71 [1] = test: Post-treatment assay with viral plaque assay; conditions: for reduction in viral titre: post-treatment, 12 hpi
# Experimental: Firstly, we performed cell viability assay to evaluate the cytotoxicity profile of the 19 hits. Cells seeded overnight were treated with the hit compounds at 10 µM. […] Anti-EV-A71 activity of AGP-253 had been illustrated and discussed previously. We were particularly interested in ZAF-46 and ZAF-47 as they belonged to the same series bearing novel 14-quinolinoxy and 17-hydro-8,9-olefin modifications (Figure 2b) that could potentially open up new targets for EV-A71 therapeutics. Additional cell viability assays were performed for ZAF-46 and ZAF-47 at different concentrations to identify the low cytotoxic concentrations for downstream post-treatment assays. For post-treatment assays, cells seeded overnight were infected with EV-A71 and subsequently treated with ZAF-46 and ZAF-47 at different concentrations. […] Treatment with ZAF-46 led to 1.4 log reduction at 10 µM and 2.4 log reduction at 20 µM (Figure 2c) while treatment with ZAF-47 led to 0.8 log reduction at 5 µM, 1.1 log reduction at 10 µM and 2.1 log reduction at 20 µM (Figure 2d). CC50 and IC50 for both compounds were determined and used to derive their SI (Table 2). ZAF-47 was selected for further downstream analysis due to its higher SI value which indicate higher pharmacological value for clinical use.
# To determine the inhibitory profiles of the hits, post treatment assay was performed. Seeded 24-well plates, with 1.5 × 10^5 RD cells per well, were incubated overnight at 37 °C with 5% CO2. The seeded cells were infected with EV-A71 (100 µL per well, MOI = 1) for 1 h at 37 °C with 5% CO2 and then rinsed with 1 mL of PBS twice. Different concentrations of the hits were used to treat the infected cells for 12 h at 37 °C with 5% CO2. At 12 hpi, the plates were frozen and thawed for 2 cycles (−80°C; 37 °C) before collection of supernatants to measure the viral titres via viral plaque assay.
# Measurement of the viral titres from collected supernatants was derived from viral plaque assays. To do this, 24-well plates, seeded with 2.4 × 10^5 RD cells per well, were used in plaque assays for EV-A71, EV-D68, Echo7, CV-A6, CV-A16 and CV-A24 while 24-well plates, seeded with 1.2 × 10^5 Vero cells per well, were used in plaque assays for CV-B5. Seeded cells were incubated overnight at 37 °C with 5% CO2. Viral supernatants were diluted from 10^−1 to 10^−7 in reduced serum DMEM before infecting the cells with a volume of 100 µL for 1 h at 37 °C with 5% CO2 (33 °C instead for EV-D68). Cells were rinsed twice with PBS before overlaying with 1 mL of reduced serum DMEM containing 0.5% agarose (Vivantis, Shah Alam, Malaysia). Cells infected with Echo7 supernatants were incubated for 2 days, cells infected with CV-A24 and CV-B5 supernatants were incubated for 3 days and cells infected with EV-A71, CV-A6, CV-A16 and EV-D68 supernatants were incubated for 4 days for the formation of plaques. Subsequently, the cells were fixed and stained overnight with 4% paraformaldehyde and 1% crystal violet (Sigma-Aldrich). Subsequent formation of viral plaques was counted manually to quantify the viral titre in PFU/mL
# EV-A71 [2] = test: Pre-treatment assay; conditions: pre-treatment 2 h, highest concentration, 12 hpi
# Experimental: as §1, §2
smiles,measurement,setting,value
"CC(=O)OC[C@]1(C)C(=O)CC[C@@]2(C)C(C/C=C3/C(=O)OC[C@@H]3Oc3cccc4cccnc34)=C(C)CC[C@@H]21 [ZAF-47, (14β)-(8′-Quinolinoxy)-3-ketone-9-dehydro-17-hydro-19-acetoxy–andrographolide]",viral titre versus DMSO treatment,EV-A71 virions,no significant difference
same,reduction in viral titre,EV-A71 [1]; 5 µM,0.8 log
same,reduction in viral titre,EV-A71 [1]; 10 µM,1.1 log
same,reduction in viral titre,EV-A71 [1]; 20 µM,2.1 log
same,IC50,"EV-A71 [1]; Enterovirus A, EVA71, EV-A71-infected RD cells, MOI = 1, 12 h treatment, viral plaque assay",2.06 µM
same,Selectivity Index (SI),EV-A71 [1]; SI = CC50/IC50,14.35
same,reduction in viral titre,EV-A71 [2],0.8 log10 PFU/mL
